Laboratory results as given in patent US10336702B2, “Pharmaceutically active compounds” (BERGENBIO ASA, priority 2015, dated 2019).

Columns and labels:
Akt1 = target: T1, Akt1 (Homo sapiens, UniProt P31749); test: Akt activation assay (PDK1-mediated activation, LANCE Ultra crosstide TR-FRET), Akt1; assay type: biochemical; settings: read-out: Biological Assay 1 IC50 (nM) Akt1
T1 construct: unspecified tag, removed (detagged) (cleaved yes); purchased SignalChem and Proteros (Akt1); Merck Millipore (PDK1) 14-452 (PDK1); none given for Akt1
T1 sequence (P31749 whole entry): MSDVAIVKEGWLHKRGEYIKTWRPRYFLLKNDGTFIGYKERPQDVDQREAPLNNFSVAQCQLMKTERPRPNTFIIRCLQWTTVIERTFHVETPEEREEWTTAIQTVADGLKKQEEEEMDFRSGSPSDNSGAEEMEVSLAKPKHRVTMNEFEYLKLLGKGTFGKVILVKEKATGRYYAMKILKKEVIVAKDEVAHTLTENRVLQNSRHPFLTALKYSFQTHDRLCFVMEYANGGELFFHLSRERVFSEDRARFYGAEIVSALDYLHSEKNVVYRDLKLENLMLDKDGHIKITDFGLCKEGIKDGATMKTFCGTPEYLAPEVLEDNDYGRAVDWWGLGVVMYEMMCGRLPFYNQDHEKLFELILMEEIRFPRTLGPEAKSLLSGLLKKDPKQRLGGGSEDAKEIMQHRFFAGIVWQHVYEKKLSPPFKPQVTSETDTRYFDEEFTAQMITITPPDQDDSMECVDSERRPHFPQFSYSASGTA
In short: (§1)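 Compound + Akt preinc.; start w/ PDK1 5 nM, DOPS/DOPC 5.5 μM each, PIP3 0.55 μM, ATP 100 μM, Ulight-crosstide 100 nM; HEPES pH 7.5, 10 mM MgCl2, 2 mM DTT, 1% DMSO; 30 min; EDTA stop; Eu-Ab TR-FRET; 4-PL IC50.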

Akt2 = target: T2, Akt2 (Homo sapiens, UniProt P31751); test: Akt activation assay (PDK1-mediated activation, LANCE Ultra crosstide TR-FRET), Akt2; assay type: biochemical; settings: read-out: Biological Assay 1 IC50 (nM) Akt2
T2 construct: unspecified tag, removed (detagged) (cleaved yes); purchased SignalChem and Proteros (Akt2); Merck Millipore (PDK1) 14-452 (PDK1); none given for Akt2
T2 sequence (P31751 whole entry): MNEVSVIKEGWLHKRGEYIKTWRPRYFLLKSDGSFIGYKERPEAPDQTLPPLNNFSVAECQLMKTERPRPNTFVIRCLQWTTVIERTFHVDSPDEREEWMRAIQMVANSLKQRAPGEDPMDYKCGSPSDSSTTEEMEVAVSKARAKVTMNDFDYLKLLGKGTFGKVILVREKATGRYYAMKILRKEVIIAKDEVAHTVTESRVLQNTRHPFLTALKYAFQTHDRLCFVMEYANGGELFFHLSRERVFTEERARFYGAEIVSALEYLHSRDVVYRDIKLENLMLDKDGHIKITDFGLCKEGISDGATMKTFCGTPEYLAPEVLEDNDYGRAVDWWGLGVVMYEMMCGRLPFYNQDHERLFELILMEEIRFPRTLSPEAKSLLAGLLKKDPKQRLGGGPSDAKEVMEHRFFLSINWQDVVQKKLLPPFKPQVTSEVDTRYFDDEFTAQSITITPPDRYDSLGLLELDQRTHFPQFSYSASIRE
In short: as §1

Akt3 = target: T3, Akt3 (Homo sapiens, UniProt Q9Y243); test: Akt activation assay (PDK1-mediated activation, LANCE Ultra crosstide TR-FRET), Akt3; assay type: biochemical; settings: read-out: Biological Assay 1 IC50 (nM) Akt3
T3 construct: unspecified tag, removed (detagged) (cleaved yes); purchased SignalChem and Proteros (Akt3); Merck Millipore (PDK1) 14-452 (PDK1); none given for Akt3
T3 sequence (Q9Y243 whole entry): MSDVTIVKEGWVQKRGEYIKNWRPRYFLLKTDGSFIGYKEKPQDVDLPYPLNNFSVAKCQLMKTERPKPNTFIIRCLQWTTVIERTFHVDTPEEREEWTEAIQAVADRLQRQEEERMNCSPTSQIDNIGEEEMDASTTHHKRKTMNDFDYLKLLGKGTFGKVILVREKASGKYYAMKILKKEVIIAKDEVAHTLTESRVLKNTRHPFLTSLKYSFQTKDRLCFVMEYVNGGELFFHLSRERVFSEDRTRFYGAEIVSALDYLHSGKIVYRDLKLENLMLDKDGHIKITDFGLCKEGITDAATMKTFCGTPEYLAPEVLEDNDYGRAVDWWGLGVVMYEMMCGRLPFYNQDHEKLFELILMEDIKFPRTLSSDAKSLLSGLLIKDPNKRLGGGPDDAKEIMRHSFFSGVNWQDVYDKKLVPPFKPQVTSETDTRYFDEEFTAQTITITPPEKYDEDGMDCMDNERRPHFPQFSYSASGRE
In short: as §1

p-Akt1 in LNCaP cells = target: T4, p-Akt1 in LNCaP cells (Homo sapiens, UniProt P31749); test: Phospho-Akt cellular SureFire assay, p-Akt1 in LNCaP cells; assay type: cell-based; settings: read-out: Biological Assay 2 IC50 (nM) Akt1 LNCaP
T4 construct: SureFire assays to detect cellular p-Akt1, p-Akt2 and p-Akt3 levels in WM115 cells (Akt2/3) and LNCaP cells (Akt1); endogenous in cells; host or cells: LNCaP (ECACC 89110211)
T4 sequence (P31749 whole entry): as the sequence (P31749 whole entry) above
In short: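 LNCaP cells, 5×10^4/well, seeded overnight, switched to 0.1% FBS medium without insulin stimulation, then compound for 15 min at 37 °C (0.3% DMSO). Lysate p-Akt1 (pThr308) by AlphaScreen SureFire, two 2 h incubations at room temperature; IC50 by 4-parameter fit.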

p-Akt2 in WM115 cells = target: T5, p-Akt2 in WM115 cells (Homo sapiens, UniProt P31751); test: Phospho-Akt cellular SureFire assay, p-Akt2 in WM115 cells; assay type: cell-based; settings: insulin stimulated, read-out: Biological Assay 2 IC50 (nM) Akt2 WM115
T5 construct: SureFire assays to detect cellular p-Akt1, p-Akt2 and p-Akt3 levels in WM115 cells (Akt2/3) and LNCaP cells (Akt1); endogenous in cells; host or cells: WM115 (ECACC 91061232), insulin-stimulated
T5 sequence (P31751 whole entry): as the sequence (P31751 whole entry) above
In short: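 WM115 cells in 0.1% FBS medium stimulated 10 min with 100 nM insulin, then exposed to compound for 15 min at 37° C (0.3% DMSO final). Lysates assayed by AlphaScreen with anti-(pThr308)Akt and isoform-specific total Akt2 antibodies; IC50 from 4-parameter fit.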

p-Akt3 in WM115 cells = target: T6, p-Akt3 in WM115 cells (Homo sapiens, UniProt Q9Y243); test: Phospho-Akt cellular SureFire assay, p-Akt3 in WM115 cells; assay type: cell-based; settings: insulin stimulated, read-out: Biological Assay 2 IC50 (nM) Akt3 WM115
T6 construct: SureFire assays to detect cellular p-Akt1, p-Akt2 and p-Akt3 levels in WM115 cells (Akt2/3) and LNCaP cells (Akt1); endogenous in cells; host or cells: WM115 (ECACC 91061232), insulin-stimulated
T6 sequence (Q9Y243 whole entry): as the sequence (Q9Y243 whole entry) above
In short: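 WM115 cells were serum-reduced to 0.1% FBS, stimulated with 100 nM insulin for 10 min, then exposed to compound (0.3% DMSO) for 15 min at 37 °C. Lysates were assayed for Thr308-phosphorylated Akt3 by AlphaScreen SureFire using an isoform-specific total Akt3 capture antibody. IC50 was derived from a 4-parameter fit.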

Row | IC50 (Akt1) | IC50 (Akt2) | IC50 (Akt3) | IC50 (p-Akt1 in LNCaP cells) | IC50 (p-Akt2 in WM115 cells) | IC50 (p-Akt3 in WM115 cells) | Structure (SMILES)
1 | > 25000 nM | 2900 nM | 31 nM | > 30000 nM | 2900 nM | 42 nM | CC(=O)N(C)[C@H]1CC[C@H](CC(=O)Nc2cc(-c3ccccc3)c(-c3ccc([C@]4(N)C[C@](C)(O)C4)c(F)c3)nn2)CC1 [Example 127, N-(6-(4-(trans-1-amino-3-hydroxy-3-methylcyclobutyl)-3-fluorophenyl)-5-phenylpyridazin-3-yl)-2-(trans-4-(N-methylacetamido)cyclohexyl)acetamide]
2 | > 18000 nM | 370 nM | 110 nM | 5500 nM | 810 nM | 93 nM | COCCN(C)[C@H]1CC[C@H](CC(=O)Nc2cc(-c3ccccc3)c(-c3ccc([C@]4(N)C[C@](C)(O)C4)cc3)cn2)CC1 [Example 128, N-(5-(4-(trans-1-amino-3-hydroxy-3-methylcyclobutyl)phenyl)-4-phenylpyridin-2-yl)-2-(trans-4-((2-methoxyethyl)(methyl)amino)cyclohexyl)acetamide]
3 | 11000 nM | 190 nM | 7 nM | 2000 nM | 620 nM | 7 nM | CCN(C(=O)OC)[C@H]1CC[C@H](CC(=O)Nc2cc(-c3ccccc3)c(-c3ccc([C@]4(N)C[C@](C)(O)C4)cc3)nn2)CC1 [Example 129, Methyl (trans-4-(2-((6-(4-(trans-1-amino-3-hydroxy-3-methylcyclobutyl)phenyl)-5-phenylpyridazin-3-yl)amino)-2-oxoethyl)cyclohexyl) (ethyl)carbamate]
4 | 4000 nM | 420 nM | 110 nM | > 16000 nM | 2800 nM | 130 nM | COC(=O)N(C)[C@H]1CC[C@H](CC(=O)Nc2cnc(-c3ccc(C4(N)CCC4)cc3)c(-c3ccccc3)c2)CC1 [Example A1, Methyl (trans-4-(2-((6-(4-(1-aminocyclobutyl)phenyl)-5-phenylpyridin-3-yl)amino)-2-oxoethyl)cyclohexyl)(methyl)carbamate]
5 | 5500 nM | 2600 nM | 1400 nM | 7700 nM | 6000 nM | 560 nM | NC1(c2ccc(-c3ncc(NC(=O)C[C@H]4CC[C@H](N5CCOCC5)CC4)cc3-c3ccccc3)cc2)CC(F)(F)C1 [Example A2, N-(6-(4-(1-amino-3,3-difluorocyclobutyl)phenyl)-5-phenylpyridin-3-yl)-2-(trans-4-morpholinocyclohexyl)acetamide]
6 | 11000 nM | 2400 nM | 630 nM | > 30000 nM | 7600 nM | 440 nM | COC(=O)N[C@H]1CC[C@H](CC(=O)Nc2cnc(-c3ccc(C4(N)CC(F)(F)C4)cc3)c(-c3ccccc3)c2)CC1 [Example A4, Methyl (trans-4-(2-((6-(4-(1-amino-3,3-difluorocyclobutyl)phenyl)-5-phenylpyridin-3-yl)amino)-2-oxoethyl)cyclohexyl)carbamate]
7 | > 30000 nM | 5800 nM | 70 nM | > 30000 nM | 7100 nM | 230 nM | CN(C(=O)C(F)F)[C@H]1CC[C@H](CC(=O)Nc2cnc(-c3ccc(C(C)(C)N)cc3)c(-c3ccccc3)c2)CC1 [Example A7, N-(trans-4-(2-((6-(4-(2-aminopropan-2-yl)phenyl)-5-phenylpyridin-3-yl)amino)-2-oxoethyl)cyclohexyl)-2,2-difluoro-N-methylacetamide]
8 | > 30000 nM | 16000 nM | 4500 nM | > 20000 nM | 24000 nM | 590 nM | CC(=O)N[C@H]1CC[C@H](CC(=O)Nc2cnc(-c3ccc([C@H](N)C(F)F)cc3)c(-c3ccccc3)c2)CC1 [Example A12, 2-(trans-4-acetamidocyclohexyl)-N-(6-(4-((S)-1-amino-2,2-difluoroethyl)phenyl)-5-phenylpyridin-3-yl)acetamide]
9 | > 30000 nM | 1800 nM | 170 nM | > 30000 nM | 3200 nM | 80 nM | NC1(c2ccc(-c3ncc(NC(=O)C[C@H]4CC[C@H](N5CCCCC5=O)CC4)cc3-c3ccsc3)cc2)CCC1 [Example A14, N-(6-(4-(1-aminocyclobutyl)phenyl)-5-(thiophen-3-yl)pyridin-3-yl)-2-(trans-4-(2-oxopiperidin-1-yl)cyclohexyl)acetamide]
10 | 260 nM | 350 nM | 290 nM | 760 nM | 810 nM | 48 nM | C[C@]1(O)C[C@@](N)(c2ccc(-c3ncc(NC(=O)C[C@H]4CC[C@H](N5CCOCC5)CC4)cc3-c3ccccc3)cc2)C1 [Example A15, N-(6-(4-(trans-1-amino-3-hydroxy-3-methylcyclobutyl)phenyl)-5-phenylpyridin-3-yl)-2-(trans-4-morpholinocyclohexyl)acetamide]
11 | > 30000 nM | 25000 nM | 6300 nM | > 27000 nM | 7900 nM | 270 nM | CC(C)(N)c1ccc(-c2ncc(NC(=O)C[C@H]3CC[C@H](N4CCOCC4)CC3)cc2-c2ccccc2)cc1 [Example A18, N-(6-(4-(2-aminopropan-2-yl)phenyl)-5-phenylpyridin-3-yl)-2-(trans-4-morpholinocyclohexyl)acetamide]
12 | > 45000 nM | > 50000 nM | 110 nM | > 30000 nM | > 30000 nM | 1800 nM | CC(=O)N[C@H]1CC[C@H](CC(=O)Nc2cnc(-c3ccc(C(C)(C)N)cc3)c(-c3ccccc3)c2)CC1 [Example A19, 2-(trans-4-acetamidocyclohexyl)-N-(6-(4-(2-aminopropan-2-yl)phenyl)-5-phenylpyridin-3-yl)acetamide]
13 | > 36000 nM | 2300 nM | 55 nM | > 30000 nM | 5400 nM | 200 nM | CC(C)(N)c1ccc(-c2ncc(NC(=O)C[C@H]3CC[C@H](NC(=O)C4CC4)CC3)cc2-c2ccccc2)cc1 [Example A20, N-(trans-4-(2-((6-(4-(2-aminopropan-2-yl)phenyl)-5-phenylpyridin-3-yl)amino)-2-oxoethyl)cyclohexyl)cyclopropane-carboxamide]
14 | > 30000 nM | 9600 nM | 2000 nM | > 30000 nM | 8900 nM | 510 nM | CN([C@H]1CC[C@H](CC(=O)Nc2cnc(-c3ccc(C(C)(C)N)cc3)c(-c3ccsc3)c2)CC1)S(C)(=O)=O [Example A24, N-(6-(4-(2-aminopropan-2-yl)phenyl)-5-(thiophen-3-yl)pyridin-3-yl)-2-(trans-4-(N-methylmethylsulfonamido)cyclo-hexyl)acetamide]
15 | > 30000 nM | 5100 nM | 560 nM | > 15000 nM | 5400 nM | 260 nM | CN([C@H]1CC[C@H](CC(=O)Nc2cnc(-c3ccc(C(C)(C)N)cc3)c(-c3ccccc3)c2)CC1)S(C)(=O)=O [Example A25, N-(6-(4-(2-aminopropan-2-yl)phenyl)-5-phenylpyridin-3-yl)-2-(trans-4-(N-methylmethylsulfonamido)cyclo-hexyl)acetamide]
16 | > 30000 nM | 3300 nM | 740 nM | > 30000 nM | 7000 nM | 390 nM | CN([C@H]1CC[C@H](CC(=O)Nc2cnc(-c3ccc(C(C)(C)N)cc3)c(-c3ccccc3F)c2)CC1)S(C)(=O)=O [Example A26, N-(6-(4-(2-aminopropan-2-yl)phenyl)-5-(2-fluorophenyl)pyridin-3-yl)-2-(trans-4-(N-methylmethylsulfonamido)cyclo-hexyl)acetamide]
